Assay results: patent US20100099564A1, “HERBICIDE COMBINATION COMPRISING DIMETHOXYTRIAZINYL-SUBSTITUTED DIFLUOROMETHANESULFONYLANILIDES” (BAYER CROPSCIENCE AG, priority 2008, published 2010)
Like-named read-outs stand apart in the source and are kept apart here.

Experiments:
Assay type in all cases: in vivo
[1] = tested on: Lolium multiflorum (LOLMU); experiment: Post-emergence action, greenhouse pot test, visual scoring: LOLMU; conditions: for % activity found: 10 DAT; for (7) % activity found: 21 DAT
Protocol: (§1) Seeds or rhizome pieces of mono- and dicotyledonous harmful and useful plants were placed in peat pots (diameter 4 cm) filled with sandy loam and then covered with soil. The pots were kept in a greenhouse under optimum conditions. In addition, harmful plants encountered in paddy rice cultivation were cultivated in pots with a water level 2 cm above the soil surface.
(§2) About three weeks after the start of the cultivation, the test plants were treated at the 2- to 3-leaf stage. The herbicides, formulated as powder or liquid concentrates, were, either alone or in the combinations according to the invention, sprayed in various dosages on to the green parts of the plants using an application rate of 600 l of water/ha (converted). For further cultivation of the plants, the pots were then again kept under optimum conditions in a greenhouse.
(§3) The visual scoring of the herbicidal effects was carried out in intervals up to 21 days after the treatment. Scoring was carried out in percent in comparison to the untreated control plants. 0%=no herbicidal activity, 100%=complete herbicidal activity=complete kill.
(§4) The percentages from the treatments with the herbicides alone (=individual application) and with the combinations according to the invention (=mixtures) were employed to calculate interactions using the method of Colby. When the observed efficacies of the mixtures exceed the formal sum of the values of the tests with individual applications, they also exceed the expected value according to Colby, which is calculated using the formula below (cf. S. R. Colby; in Weeds 15 (1967) pp. 20 to 22):
(§5) Here: • A, B=activity of components A and B in percent at a dosage of a and b g of ai/ha (=gramm of active substance per hectare), respectively. • E=expected value in % at a dosage of a+b g of ai/ha.
(§6) The combinations according to the invention of herbicides from group (A) with herbicides from group (B) were tested on a broad spectrum of important harmful plants (weed grasses, broad-leaved weeds/Cyperaceae) and useful plants: Triticum aestivum (TRZAS), Stellaria media (STEME), Lolium multiflorum (LOLMU), Veronica persica (VERPE), Alopecurus myosuroides (ALOMY), Matricaria inodora (MATIN), Brassica napus (BRSNW), Viola tricolor (VIOTR), Avena fatua (AVEFA), Amaranthus retroflexus (AMARE), Zea mays (ZEAMX), Pharbitis purpurea (PHBPU), Setaria viridis (SETVI), Fallopia (ex Polygonum) convolvulus (POLCO), Echinochloa crusgaffi (ECHCG), Abuthilon theophrasti (ABUTH), Cyperus esculentus (CYPES), Oryza sativa (ORYSA).
(§7) Of particular interest are the results shown in the tables (Tab.) below, where the following key is used: • (1) EPPO code (former Bayer code) for the treated plant (see above) • (2) Time of scoring: DAT (days after treatment) • (3) Component A tested (identifying number) • (4) Component B tested (identifying number) • (5) Dosage component A [g of ai/ha] • (6) Dosage component B [g of ai/ha] • (7) % activity found • (8) E value (calculated according to Colby; see above) • (9) Comments: “SYNERGY” =synergistic interaction (E value<% activity found); “SAFENING”=safener action on useful plant (E value>% activity found)

[2] = tested on: Avena fatua (AVEFA); experiment: Post-emergence action, greenhouse pot test, visual scoring: AVEFA
Protocol: as §1, §2, §3, §4, §5, §6, §7

[3] = tested on: Alopecurus myosuroides (ALOMY); experiment: Post-emergence action, greenhouse pot test, visual scoring: ALOMY; conditions: for pest or weed control at 400 g/ha: B 400 g of ai/ha
Protocol: as §1, §2, §3, §4, §5

[4] = tested on: Setaria viridis (SETVI); experiment: Post-emergence action, greenhouse pot test, visual scoring: SETVI; conditions: 21 DAT
Protocol: as §1, §2, §3, §4, §5, §6, §7

[5] = tested on: Cyperus esculentus (CYPES); experiment: Post-emergence action, greenhouse pot test, visual scoring: CYPES; conditions: rate (6) 18
Protocol: as §1, §2, §3, §4, §5

[6] = tested on: Triticum aestivum (TRZAS); experiment: Post-emergence action, greenhouse pot test, visual scoring: TRZAS; conditions: for (7) % activity found: 21 DAT
Protocol: as §1, §2, §3, §4, §5, §6, §7

[7] = tested on: Echinochloa crusgaffi (ECHCG); experiment: Post-emergence action, greenhouse pot test, visual scoring: ECHCG; conditions: 10 DAT
Protocol: as §1, §2, §3, §4, §5, §6, §7

[8] = tested on: Pharbitis purpurea (PHBPU); experiment: Post-emergence action, greenhouse pot test, visual scoring: PHBPU
Protocol: as §1, §2, §3, §4, §5, §6, §7

[9] = tested on: Amaranthus retroflexus (AMARE); experiment: Post-emergence action, greenhouse pot test, visual scoring: AMARE; conditions: 10 DAT
Protocol: as §1, §2, §3, §4, §5

[10] = tested on: Fallopia (ex Polygonum) convolvulus (POLCO); experiment: Post-emergence action, greenhouse pot test, visual scoring: POLCO; conditions: 21 DAT
Protocol: as §1, §2, §3, §4, §5, §6, §7

[11] = tested on: Stellaria media (STEME); experiment: Post-emergence action, greenhouse pot test, visual scoring: STEME; conditions: 10 DAT, B 400 g of ai/ha
Protocol: as §1, §2, §3, §4, §5, §6, §7

[12] = tested on: Oryza sativa (ORYSA); experiment: Post-emergence action, greenhouse pot test, visual scoring: ORYSA; conditions: Oryza sativa, post-emergence, 240 h; 10 DAT, B 400 g of ai/ha; read-out: % activity found
Protocol: as §1, §2, §3, §4, §5, §6, §7

[13] = tested on: Veronica persica (VERPE); experiment: Post-emergence action, greenhouse pot test, visual scoring: VERPE
Protocol: as §1, §2, §3, §4, §5, §6, §7

[14] = tested on: Abuthilon theophrasti (ABUTH); experiment: Post-emergence action, greenhouse pot test, visual scoring: ABUTH; conditions: 21 DAT, B 400 g of ai/ha
Protocol: as §1, §2, §3, §4, §5, §6, §7

[15] = tested on: Matricaria inodora (MATIN); experiment: Post-emergence action, greenhouse pot test, visual scoring: MATIN
Protocol: as §1, §2, §3, §4, §5

[16] = tested on: Zea mays (ZEAMX); experiment: Post-emergence action, greenhouse pot test, visual scoring: ZEAMX; conditions: Zea mays, post-emergence, B 1200 g of ai/ha, read-out: % activity found
Protocol: as §1, §2, §3, §4, §5, §6, §7

COc1cc(OC)nc(NC(=O)NS(=O)(=O)Nc2ccccc2C(=O)C2CC2)n1 [B7-7, N-[[[2-(cyclopropylcarbonyl)phenyl]amino]sulfonyl]-N′-(4,6-dimethoxy-2-pyrimidinyl)urea]
% activity found ([1]; dose (6) 18): 0% | % activity found ([1]; dose (6) 54): 0% | (7) % activity found ([1]; rate (6) 18): 0% | (7) % activity found ([1]; rate (6) 54): 0% | % activity found ([2]; 10 DAT, dose (6) 18): 0% | % activity found ([2]; 10 DAT, dose (6) 54): 30% | (7) % activity found ([2]; 21 DAT, rate (6) 18): 0% | (7) % activity found ([2]; 21 DAT, rate (6) 54): 10% | (7) % activity found ([3]; 21 DAT, rate (6) 18): 30% | (7) % activity found ([3]; 21 DAT, rate (6) 54): 40% | (7) % activity found ([4]; rate (6) 18): 20% | (7) % activity found ([4]; rate (6) 54): 20% | (7) % activity found ([5]; 10 DAT): 0% | (7) % activity found ([5]; 21 DAT): 40% | (7) % activity found ([6]; rate (6) 18): 0% | (7) % activity found ([6]; rate (6) 54): 0% | (7) % activity found ([7]; rate (6) 18): 0% | (7) % activity found ([7]; rate (6) 54): 0%

CCCCOCN(C(=O)CCl)c1c(CC)cccc1CC [B4-3, N-(butoxymethyl)-2-chloro-N-(2,6-diethylphenyl)acetamide]
% activity found ([8]; 10 DAT, B 400 g of ai/ha): 0% | % activity found ([8]; 10 DAT, B 1200 g of ai/ha): 0% | % activity found ([8]; 21 DAT, B 400 g of ai/ha): 0% | % activity found ([8]; 21 DAT, B 1200 g of ai/ha): 0% | % activity found ([9]; B 400 g of ai/ha): 0% | % activity found ([9]; B 1200 g of ai/ha): 0% | % activity found ([10]; B 400 g of ai/ha): 0% | % activity found ([10]; B 1200 g of ai/ha): 0% | % activity found [11]: 0% | % activity found ([1]; B 400 g of ai/ha): 40% | plant injury at 400 g/ha [12]: 0% | % activity found ([13]; 10 DAT, B 400 g of ai/ha): 0% | % activity found ([13]; 10 DAT, B 1200 g of ai/ha): 0% | % activity found ([13]; 21 DAT, B 1200 g of ai/ha): 20% | % activity found ([2]; 21 DAT, B 1200 g of ai/ha): 50% | % activity found [14]: 0% | pest or weed control at 400 g/ha ([3]; Alopecurus myosuroides, post-emergence, 240 h, 10 DAT, read-out: % activity found): 20% | pest or weed control at 400 g/ha ([3]; Alopecurus myosuroides, post-emergence, 504 h, 21 DAT, read-out: % activity found): 0% | pest or weed control at 1200 g/ha ([3]; Alopecurus myosuroides, post-emergence, 504 h, 21 DAT, B 1200 g of ai/ha, read-out: % activity found): 50% | pest or weed control at 400 g/ha ([4]; Setaria viridis, post-emergence, 504 h, B 400 g of ai/ha, read-out: % activity found): 0% | % activity found ([15]; 10 DAT, B 400 g of ai/ha): 0% | % activity found ([15]; 10 DAT, B 1200 g of ai/ha): 20% | % activity found ([15]; 21 DAT, B 400 g of ai/ha): 0% | % activity found ([15]; 21 DAT, B 1200 g of ai/ha): 40% | plant injury at 400 g/ha ([6]; Triticum aestivum, post-emergence, 240 h, 10 DAT, B 400 g of ai/ha, read-out: % activity found): 0% | plant injury at 1200 g/ha ([16]; 240 h, 10 DAT): 20% | plant injury at 1200 g/ha ([16]; 504 h, 21 DAT): 0%
